Test results published in paper PMC9950431, “A bivalent remipede toxin promotes calcium release via ryanodine receptor activation” (Nature Communications, 2023).

How the values were obtained:
ryanodine receptor = target: T1, ryanodine receptor (Oryctolagus cuniculus, UniProt P11716); assay: Single channel recording with Xt3a exposure, sheet "Figure 3B" (RyR isoform not given); format: biochemical
T1 construct: skeletal SR vesicles were isolated from the back and leg muscles of mature female New Zealand white rabbits; from tissue; host or cells: rabbit back and leg skeletal muscle, sarcoplasmic reticulum vesicles
T1 sequence (P11716 whole entry, canonical isoform): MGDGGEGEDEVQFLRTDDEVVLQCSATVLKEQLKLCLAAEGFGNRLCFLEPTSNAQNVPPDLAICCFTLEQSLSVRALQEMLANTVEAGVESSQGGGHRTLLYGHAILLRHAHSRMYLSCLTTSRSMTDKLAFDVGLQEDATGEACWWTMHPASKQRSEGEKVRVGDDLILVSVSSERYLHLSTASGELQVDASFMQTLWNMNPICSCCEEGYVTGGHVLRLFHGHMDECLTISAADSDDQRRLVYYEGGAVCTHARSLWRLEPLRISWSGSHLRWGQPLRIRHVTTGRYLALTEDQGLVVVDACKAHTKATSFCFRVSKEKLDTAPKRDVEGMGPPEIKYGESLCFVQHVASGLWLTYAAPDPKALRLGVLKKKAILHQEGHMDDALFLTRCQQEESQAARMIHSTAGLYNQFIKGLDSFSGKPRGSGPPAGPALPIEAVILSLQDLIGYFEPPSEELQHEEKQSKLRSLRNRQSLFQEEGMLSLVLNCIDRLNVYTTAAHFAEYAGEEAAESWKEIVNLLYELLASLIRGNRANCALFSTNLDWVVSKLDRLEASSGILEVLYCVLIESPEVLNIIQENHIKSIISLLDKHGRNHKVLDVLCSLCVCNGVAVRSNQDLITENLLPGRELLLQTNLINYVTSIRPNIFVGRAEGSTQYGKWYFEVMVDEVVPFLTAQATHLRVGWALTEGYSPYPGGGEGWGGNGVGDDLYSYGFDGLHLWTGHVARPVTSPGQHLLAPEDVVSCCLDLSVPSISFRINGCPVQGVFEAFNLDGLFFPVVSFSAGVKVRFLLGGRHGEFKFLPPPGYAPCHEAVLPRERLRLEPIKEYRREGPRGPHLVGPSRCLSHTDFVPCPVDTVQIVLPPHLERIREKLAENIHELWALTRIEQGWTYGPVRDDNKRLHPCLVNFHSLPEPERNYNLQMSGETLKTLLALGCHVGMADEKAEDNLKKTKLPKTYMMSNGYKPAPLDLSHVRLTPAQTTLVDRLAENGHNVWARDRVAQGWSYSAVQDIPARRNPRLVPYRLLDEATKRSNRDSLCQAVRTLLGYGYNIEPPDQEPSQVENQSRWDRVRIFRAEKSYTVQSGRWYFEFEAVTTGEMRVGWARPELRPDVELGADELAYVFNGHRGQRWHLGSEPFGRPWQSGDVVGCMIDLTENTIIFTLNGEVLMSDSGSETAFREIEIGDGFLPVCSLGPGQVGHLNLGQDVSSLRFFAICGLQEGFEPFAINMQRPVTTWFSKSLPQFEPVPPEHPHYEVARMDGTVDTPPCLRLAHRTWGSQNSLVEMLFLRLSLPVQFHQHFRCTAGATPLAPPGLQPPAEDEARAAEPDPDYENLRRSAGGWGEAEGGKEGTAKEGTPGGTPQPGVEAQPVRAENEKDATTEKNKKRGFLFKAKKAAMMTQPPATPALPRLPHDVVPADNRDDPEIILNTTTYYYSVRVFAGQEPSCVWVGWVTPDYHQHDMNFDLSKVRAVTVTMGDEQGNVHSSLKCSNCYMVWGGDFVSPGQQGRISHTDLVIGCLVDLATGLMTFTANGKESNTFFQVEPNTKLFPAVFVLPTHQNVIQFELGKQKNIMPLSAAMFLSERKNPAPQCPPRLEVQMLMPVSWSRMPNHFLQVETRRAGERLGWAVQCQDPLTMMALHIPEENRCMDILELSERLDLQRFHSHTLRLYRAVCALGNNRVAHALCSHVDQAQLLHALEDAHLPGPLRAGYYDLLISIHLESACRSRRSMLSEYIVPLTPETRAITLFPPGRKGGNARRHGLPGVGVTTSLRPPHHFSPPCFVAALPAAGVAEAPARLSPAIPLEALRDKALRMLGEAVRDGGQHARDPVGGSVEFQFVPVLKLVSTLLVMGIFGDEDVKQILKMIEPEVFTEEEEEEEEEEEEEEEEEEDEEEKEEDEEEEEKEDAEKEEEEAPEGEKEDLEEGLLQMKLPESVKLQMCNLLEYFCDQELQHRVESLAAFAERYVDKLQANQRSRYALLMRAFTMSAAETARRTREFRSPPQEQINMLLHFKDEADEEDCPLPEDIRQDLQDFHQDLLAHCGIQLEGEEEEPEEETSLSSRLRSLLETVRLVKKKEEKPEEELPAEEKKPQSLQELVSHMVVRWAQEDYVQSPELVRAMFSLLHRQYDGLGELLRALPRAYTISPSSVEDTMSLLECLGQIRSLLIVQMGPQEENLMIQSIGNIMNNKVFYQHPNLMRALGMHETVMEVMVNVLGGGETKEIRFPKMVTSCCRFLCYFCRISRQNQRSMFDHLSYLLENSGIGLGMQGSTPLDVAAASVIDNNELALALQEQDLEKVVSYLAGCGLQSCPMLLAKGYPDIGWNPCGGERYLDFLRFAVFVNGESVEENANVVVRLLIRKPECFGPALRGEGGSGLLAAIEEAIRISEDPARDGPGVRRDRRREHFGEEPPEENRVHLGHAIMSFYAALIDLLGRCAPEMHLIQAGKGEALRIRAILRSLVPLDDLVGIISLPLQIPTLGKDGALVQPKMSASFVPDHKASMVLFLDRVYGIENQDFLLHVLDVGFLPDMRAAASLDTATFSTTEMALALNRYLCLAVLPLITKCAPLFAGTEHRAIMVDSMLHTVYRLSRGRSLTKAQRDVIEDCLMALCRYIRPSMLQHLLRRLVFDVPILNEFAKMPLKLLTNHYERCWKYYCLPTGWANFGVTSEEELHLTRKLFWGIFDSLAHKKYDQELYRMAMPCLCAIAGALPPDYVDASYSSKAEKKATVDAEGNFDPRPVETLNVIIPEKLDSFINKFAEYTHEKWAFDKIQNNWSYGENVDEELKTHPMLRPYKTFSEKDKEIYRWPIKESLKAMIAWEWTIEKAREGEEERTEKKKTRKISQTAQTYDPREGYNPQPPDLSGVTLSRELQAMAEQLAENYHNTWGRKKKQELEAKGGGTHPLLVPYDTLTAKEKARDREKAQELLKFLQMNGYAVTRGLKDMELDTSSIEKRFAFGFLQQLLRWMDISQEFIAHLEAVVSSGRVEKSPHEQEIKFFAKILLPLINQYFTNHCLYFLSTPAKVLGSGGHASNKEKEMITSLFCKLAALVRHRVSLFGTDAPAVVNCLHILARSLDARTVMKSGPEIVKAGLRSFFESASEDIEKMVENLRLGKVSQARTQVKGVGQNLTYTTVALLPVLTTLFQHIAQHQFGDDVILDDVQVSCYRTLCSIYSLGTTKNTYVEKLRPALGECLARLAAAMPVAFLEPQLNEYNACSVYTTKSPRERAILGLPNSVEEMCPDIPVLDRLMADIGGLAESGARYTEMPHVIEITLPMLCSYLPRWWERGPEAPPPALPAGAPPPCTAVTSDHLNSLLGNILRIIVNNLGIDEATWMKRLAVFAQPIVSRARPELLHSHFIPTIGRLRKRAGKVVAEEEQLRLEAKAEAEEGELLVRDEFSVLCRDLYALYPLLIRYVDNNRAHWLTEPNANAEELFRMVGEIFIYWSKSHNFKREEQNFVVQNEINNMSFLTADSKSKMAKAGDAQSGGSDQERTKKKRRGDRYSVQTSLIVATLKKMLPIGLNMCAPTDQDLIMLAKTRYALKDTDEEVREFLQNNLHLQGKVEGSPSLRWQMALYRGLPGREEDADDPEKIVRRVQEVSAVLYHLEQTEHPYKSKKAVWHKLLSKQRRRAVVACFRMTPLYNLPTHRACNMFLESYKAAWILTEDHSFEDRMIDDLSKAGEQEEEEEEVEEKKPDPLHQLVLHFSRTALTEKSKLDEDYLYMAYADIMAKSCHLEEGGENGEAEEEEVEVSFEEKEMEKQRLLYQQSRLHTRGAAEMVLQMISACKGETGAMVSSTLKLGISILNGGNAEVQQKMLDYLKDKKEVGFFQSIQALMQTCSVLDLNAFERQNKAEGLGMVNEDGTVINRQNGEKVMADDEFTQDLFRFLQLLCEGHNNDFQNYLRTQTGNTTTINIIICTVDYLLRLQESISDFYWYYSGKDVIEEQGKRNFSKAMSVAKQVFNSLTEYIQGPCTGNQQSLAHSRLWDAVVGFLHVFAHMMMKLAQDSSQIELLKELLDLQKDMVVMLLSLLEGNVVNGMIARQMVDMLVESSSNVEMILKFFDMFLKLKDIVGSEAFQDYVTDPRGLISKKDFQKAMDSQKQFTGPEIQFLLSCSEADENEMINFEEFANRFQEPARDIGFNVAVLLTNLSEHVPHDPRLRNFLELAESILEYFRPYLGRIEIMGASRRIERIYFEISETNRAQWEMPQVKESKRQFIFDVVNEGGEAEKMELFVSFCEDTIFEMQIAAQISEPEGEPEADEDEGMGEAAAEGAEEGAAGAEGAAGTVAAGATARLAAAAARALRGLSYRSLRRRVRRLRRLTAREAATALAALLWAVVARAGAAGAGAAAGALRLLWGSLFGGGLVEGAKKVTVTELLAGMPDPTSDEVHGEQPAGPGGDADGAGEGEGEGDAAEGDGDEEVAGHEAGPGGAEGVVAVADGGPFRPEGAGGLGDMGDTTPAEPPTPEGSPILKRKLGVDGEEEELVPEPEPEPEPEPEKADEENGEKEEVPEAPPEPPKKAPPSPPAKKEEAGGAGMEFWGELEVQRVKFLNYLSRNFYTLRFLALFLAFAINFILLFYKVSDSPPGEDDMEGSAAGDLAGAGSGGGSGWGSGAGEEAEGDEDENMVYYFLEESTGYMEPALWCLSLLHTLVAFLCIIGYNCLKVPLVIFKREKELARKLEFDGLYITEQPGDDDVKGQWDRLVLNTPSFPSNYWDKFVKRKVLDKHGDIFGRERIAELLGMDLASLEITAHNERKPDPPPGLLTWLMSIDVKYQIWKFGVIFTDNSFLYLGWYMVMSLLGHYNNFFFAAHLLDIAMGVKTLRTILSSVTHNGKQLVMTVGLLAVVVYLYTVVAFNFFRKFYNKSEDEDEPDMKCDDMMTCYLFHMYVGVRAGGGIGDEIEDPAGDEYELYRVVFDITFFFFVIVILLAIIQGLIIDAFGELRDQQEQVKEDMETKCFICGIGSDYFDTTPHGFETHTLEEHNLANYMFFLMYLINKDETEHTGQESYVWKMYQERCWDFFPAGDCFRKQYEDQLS

RyR1 = target: T2, RyR1 (Oryctolagus cuniculus, UniProt P11716); assay: Single channel electrophysiology of RyR1 channels inserted into lipid bilayers (exposure to peptide); format: biochemical, New Zealand white rabbit (skeletal SR); conditions: for relPo: without WO, relative to control
T2 construct: skeletal SR vesicles were isolated from the back and leg muscles of mature female New Zealand white rabbits; from tissue; host or cells: rabbit back and leg skeletal muscle, sarcoplasmic reticulum vesicles
T2 sequence (P11716 whole entry): as the sequence (P11716 whole entry, canonical isoform) above
Procedure: Cardiac SR was prepared from mature female crossbred sheep hearts, and skeletal SR vesicles were isolated from the back and leg muscles of mature female New Zealand white rabbits[29],[54] with approval from the ANU Animal Experiment Ethics Committee Protocol Number A2015/35. […] Solutions for vesicle incorporation contained (mM): cis 230 caesium methanesulfonate (CsMS); 20 CsCl; 1 CaCl2 and 10 […] (TES) pH 7.4 and trans 30 CsMS; 20 CsCl; 1 CaCl2 10 TES; pH 7.4. […] Following incorporation, 200 mM CsMS was added to the trans solution and the cis solution exchanged with recording solution containing (mM): 230 CsMS; 20 CsCl; 0.001 CaCl2;10 TES and pH 7.4, with [Ca^2+] set by a [BAPTA] determined using a Ca^2+ electrode. The cytoplasmic and luminal solutions contained 1 μM and 1 mM Ca^2+ respectively, with symmetrical 250/250 mM CsMS. Bilayer voltage was switched between +40 mV and −40 mV (cytoplasmic voltage relative to grounded luminal solution) every 30 s. The activity of the RyR channels used here included 1 µM Ca^2+ in the cytoplasmic solution and 1 mM Ca^2+ in the luminal solution[29],[55]. Electrophysiology experiments were analysed using Channel 2 (P.W. Gage, M. Smith, Australian National University) and Channel 3 (N.W. Laver, University of Newcastle, Australia) software, available from the authors upon request. Statistical analyses were performed using Microsoft Excel (Office 365). […] Following most incorporation events, a single channel only was active in the bilayer and channel open probability (Po), mean open time (To), mean closed time (Tc) and open event frequency (Fo) were measured. When 2–4 channels were active in a bilayer, PO was approximated from the fractional mean current (I’F), i.e., mean current divided by maximum current. I’F is equal to PO in a single channel and indicates the average PO of multiple channels in a bilayer. […] Experiments at UN also included a minority of multi-channel experiments. The bilayer rigs, solution composition, source of channels, data acquisition and analyses methods were all identical.
Statistical analysis of single channel data was performed using Excel spreadsheets and embedded Students t-test functions or a sign test as indicated in the graphs in Figs. 1 and 3.

## φ-Xibalbin3-Xt3a
Ryanodine receptor; 1nM Xt3a vs 1 micoM Ca, CT1124n
  rel Po: 0.8977
Ryanodine receptor; 1nM Xt3a vs 1 micoM Ca, CT1124p
  rel Po: 0.6333
Ryanodine receptor; 1nM Xt3a vs 1 micoM Ca, CT1125p (r7)
  rel Po: 0.7826
Ryanodine receptor; 1nM Xt3a vs 1 micoM Ca, CT1125p (r12)
  rel Po: 0.3373
Ryanodine receptor; 1nM Xt3a vs 1 micoM Ca, CT1126n
  rel Po: 1.286
Ryanodine receptor; 1nM Xt3a vs 1 micoM Ca, CT1126p
  rel Po: 0.0123
Ryanodine receptor; 1nM Xt3a vs 1 micoM Ca, CT1129p
  rel Po: 0.92
Ryanodine receptor; 1nM Xt3a vs 1 micoM Ca, mean of 7 records
  rel Po: 0.6956
Ryanodine receptor; 10nM Xt3a vs 1 micoM Ca, CT1124n
  rel Po: 0.4488
Ryanodine receptor; 10nM Xt3a vs 1 micoM Ca, CT1124p
  rel Po: 0.3778
Ryanodine receptor; 10nM Xt3a vs 1 micoM Ca, CT1125p (r7)
  rel Po: 1.957
Ryanodine receptor; 10nM Xt3a vs 1 micoM Ca, CT1125p (r12)
  rel Po: 1.108
Ryanodine receptor; 10nM Xt3a vs 1 micoM Ca, CT1126n
  rel Po: 2.128
Ryanodine receptor; 10nM Xt3a vs 1 micoM Ca, CT1126p
  rel Po: 0.02049
Ryanodine receptor; 10nM Xt3a vs 1 micoM Ca, CT1129p
  rel Po: 0.23
Ryanodine receptor; 10nM Xt3a vs 1 micoM Ca, mean of 7 records
  rel Po: 0.8957
Ryanodine receptor; 100nM Xt3a vs 1 micoM Ca, CT1134 n
  rel Po: 0.7716
Ryanodine receptor; 100nM Xt3a vs 1 micoM Ca, CT1134 p
  rel Po: 1.135
Ryanodine receptor; 100nM Xt3a vs 1 micoM Ca, CT1135 n
  rel Po: 0.4052
Ryanodine receptor; 100nM Xt3a vs 1 micoM Ca, CT1135 p
  rel Po: 0.4783
Ryanodine receptor; 100nM Xt3a vs 1 micoM Ca, CT1136 n
  rel Po: 1.741
Ryanodine receptor; 100nM Xt3a vs 1 micoM Ca, CT1136 p
  rel Po: 0.75
Ryanodine receptor; 100nM Xt3a vs 1 micoM Ca, CT1137 n
  rel Po: 0.9231
Ryanodine receptor; 100nM Xt3a vs 1 micoM Ca, CT1137p
  rel Po: 4
Ryanodine receptor; 100nM Xt3a vs 1 micoM Ca, CT1138n
  rel Po: 4.333
Ryanodine receptor; 100nM Xt3a vs 1 micoM Ca, CT1138p
  rel Po: 1.4
Ryanodine receptor; 100nM Xt3a vs 1 micoM Ca, mean of 10 records
  rel Po: 1.5937
Ryanodine receptor; 1 microM Xt3a vs 1 micoM Ca, CT1134 n
  rel Po: 1.472
Ryanodine receptor; 1 microM Xt3a vs 1 micoM Ca, CT1134 p
  rel Po: 4.143
Ryanodine receptor; 1 microM Xt3a vs 1 micoM Ca, CT1135 n
  rel Po: 32.1638
Ryanodine receptor; 1 microM Xt3a vs 1 micoM Ca, CT1136 n
  rel Po: 1
Ryanodine receptor; 1 microM Xt3a vs 1 micoM Ca, CT1136 p
  rel Po: 0.625
Ryanodine receptor; 1 microM Xt3a vs 1 micoM Ca, CT1137 n
  rel Po: 1.769
Ryanodine receptor; 1 microM Xt3a vs 1 micoM Ca, CT1137p
  rel Po: 2
Ryanodine receptor; 1 microM Xt3a vs 1 micoM Ca, CT1138n
  rel Po: 1.286
Ryanodine receptor; 1 microM Xt3a vs 1 micoM Ca, CT1138p
  rel Po: 0.9
Ryanodine receptor; 1 microM Xt3a vs 1 micoM Ca, mean (CT1135 p cell empty)
  rel Po: 5.04
RyR1
  activity against RyR1 (discussion): even more potent than IpTxA
RyR1; 10 pM Xt3a, mean (sem in row below)
  relPo: 4.209
RyR1; 10 pM Xt3a, replicate CT1012 n
  relPo: 4.171
RyR1; 10 pM Xt3a, replicate CT1013 n
  relPo: 17.6667
RyR1; 10 pM Xt3a, replicate CT1024 n
  relPo: 1.745
RyR1; 10 pM Xt3a, replicate CT1051 n
  relPo: 0.553
RyR1; 10 pM Xt3a, replicate CT1052 n
  relPo: 1.086
RyR1; 10 pM Xt3a, replicate CT1055 n
  relPo: 3.339
RyR1; 10 pM Xt3a, replicate CT1143 n
  relPo: 0.669
RyR1; 10 pM Xt3a, replicate CT1144 n
  relPo: 11.3
RyR1; 10 pM Xt3a, replicate CT1145 n
  relPo: 13.6431
RyR1; 10 pM Xt3a, replicate CT1146 n
  relPo: 1.397
RyR1; 10 pM to 1 µM
  channel open probability (PO) relative to baseline: significant changes in all Xt3a concentrations tested
RyR1; 100 pM Xt3a, −40 mV, prolonged gating to substate levels
  substate level, % of maximum conductance: < 50%
RyR1; 100 pM Xt3a, mean (sem in row below)
  relPo: 2.735
RyR1; 100 pM Xt3a, replicate CT1012 n
  relPo: 1.829
RyR1; 100 pM Xt3a, replicate CT1013 n
  relPo: 17
RyR1; 100 pM Xt3a, replicate CT1024 n
  relPo: 1.169
RyR1; 100 pM Xt3a, replicate CT1051 n
  relPo: 0.6185
RyR1; 100 pM Xt3a, replicate CT1052 n
  relPo: 1.17
RyR1; 100 pM Xt3a, replicate CT1055 n
  relPo: 1.101
RyR1; 100 pM Xt3a, replicate CT1143 n
  relPo: 1.262
RyR1; 100 pM Xt3a, replicate CT1144 n
  relPo: 6.375
RyR1; 100 pM Xt3a, replicate CT1145 n
  relPo: 3.125
RyR1; 100 pM Xt3a, replicate CT1146 n
  relPo: 1.411
RyR1; 0.1–1 µM Xt3a
  decline in PO compared with 10 nM Xt3a: ~ 50%
RyR1; Xt3a up to 10 nM
  full conductance channel openings (high affinity activation): led to an increase in full conductance channel openings
RyR1; −40 mV vs +40 mV, RyR1 and RyR2
  voltage-dependent promotion of channel substate activity: greater in the presence of nanomolar concentrations of Xt3a in RyR1 than in RyR2
